Entries after “also recorded” stand apart in the source; their conditions may differ.
Key:
[1] = test system: presynaptic dopaminergic receptor (autoreceptor); assay: Spontaneous exploratory motor activity of rats, enantiomers of 3-PPP; format: in vivo, rat
Description: 1. Evidence for presynaptic dopaminergic receptor (autoreceptor) agonist activity of both enantiomers of 3-PPP. Both enantiomers of 3-PPP cause a dose-dependent decrease in spontaneous exploratory motor activity of rats. […] However, the (+)-enantiomer causes a decrease only after doses between 0.25 and 4 mg/kg s.c.

dopa formation = assay: Dopa formation and dopamine metabolite levels in rats not pretreated with GBL or reserpine; format: in vivo, rat
[2] = test system: postsynaptic dopaminergic receptors; assay: Locomotor activity in reserpine-treated rats, enantiomers of 3-PPP; format: in vivo, rat; settings: reserpine-treated rats; (+)-form 0.25 to 64 mg/kg
Text: 2. Evidence for postsynaptic dopaminergic receptor agonist activity of (+)-3-PPP.

[3] = test system: postsynaptic dopaminergic receptor; assay: Antagonism of apomorphine-induced locomotor stimulation; format: in vivo, rat
Description: 3. Evidence for postsynaptic dopminergic receptor antagonist activity of (-)-3-PPP.
The locomotor stimulating action of the dopamine receptor aqonist apomorphine is antagonized by (-)-3-PPP. […] Thus the postsynaptic receptor antagonist activity requires a larger dose than the presynaptic receptor agonist activity, which is evident after doses down to 0.25 mg/kg.
Further, (-)-3-PPP and racemic 3-PPP have been compared regarding antagonism of apomorphine-induced locomotor stimulation. Either form of 3-PPP was injected subcutaneously in a dose of 8 mg/kg 20 min and apomorphine in a dose of 1 mg/kg subcutaneously 5 min before placing the rats in the Motron for 30 min. Shown are the counts per 30 min., means± s.e.m. and number of experiments (n).

[4] = test system: presynaptic dopaminergic receptors and postsynaptic dopaminergic receptors; assay: Antagonism of the locomotor stimulating activity of (+)-amphetamine; settings: in vivo
Text: This effect is probably the result of the simultaneous stimulation of presynaptic dopaminergic receptors and partial blockade of postsynaptic dopaminergic receptors. All the major antipsychotic agents in current use are potent amphetamine antagonists, and such activity is considered to be predictive of antipsychotic action.

[5] = test system: dopaminergic receptors (presynaptic and postsynaptic); assay: Dopaminergic receptor profile of 3-PPP and its enantiomers (summary of tests); format: in vivo; settings: summary of enantiomer tests
Text: The two enantiomers of 3-PPP have now been tested separately.

CCCN1CCCC(c2cccc(O)c2)C1.Cl (single isomer, unassigned; (-)) [(-)-3-PPP, (-)-3-(3-Hydroxyphenyl)-N-n-propylpiperidine hydrochloride]
effect on locomotor activity over dose range ([1]; doses between 0.053 and 64 mg/kg s.c.): a decrease after all these doses, with no reversal of the effect after larger doses | doses down to which presynaptic receptor agonist activity is evident ([1]; presynaptic receptor agonist activity): 0.25 mg/kg | decrease of locomotor activity to % of control ([1]; s.c., first 30 min): 30-40 % of control | dopa formation, limbic region (dopa formation; 0.053 to 64 mg/kg, no pretreatment, limbic region): no change | dopa formation, striatum (dopa formation; 0.053 to 64 mg/kg, no pretreatment, striatum): increase | levels of 3,4-dihydroxyphenyl acetic acid and homovanillic acid (dopa formation; matched to the changes in dopa formation): corresponding changes in the levels of the dopamine metabolites | dopa formation and dopamine metabolite levels in rat striatum (dopa formation; rat striatum): stimulate dopa formation and to raise dopaminemetabolite levels in rat striatum | stimulation of locomotor activity [2]: only a very weak stimulation of motor activity | antagonism of apomorphine locomotor stimulation ([3]; 2 mg/kg): not after 2 mg/kg | counts per 30 min., with apomorphine ([3]; 8 mg/kg s.c. + apomorphine 1 mg/kg s.c., means ± s.e.m., n=5): 276 ± 50 counts per 30 min. | antagonism of apomorphine locomotor stimulation ([3]; 8 mg/kg s.c., hydrochloride): clearcut; also recorded: antagonized said stimulation | antagonism of (+)-amphetamine locomotor stimulating activity [4]: striking antagonistic action | activity on presynaptic and postsynaptic dopaminergic receptors [5]: capable of activating the presynaptic dopaminergic receptors (autoreceptors) but concomitantly reduced the sensitivity of the postsynaptic dopaminergic receptors to dopaminergic agonists
